Assay results reported in US11028090B2 (Dong Wha Pharm. Co., Ltd., priority 2017, dated 2021).
Where two headings read alike, the source gives them in different places.

Key:
[1] = biological target: BRD4 (BD1+BD2) bromodomain (Homo sapiens (Human), UniProt O60885); assay: BRD4 binding inhibition (AlphaScreen, GST-BRD4 vs tetraacetylated histone H4 peptide)
Outline: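 AlphaScreen read after 30 min dark incubation at room temperature with glutathione acceptor/streptavidin donor beads (10 μg/ml each). The beads were added to compound plus 100 nM biotin-H4 (K5,8,12,16-acetyl) peptide and 100 nM GST-BRD4 BD1+BD2 in pH 7.4 HEPES/Tween/BSA/DTT buffer.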

[2] = test system: acute myelogenous leukemia cells (MV-4-11 cells)
[3] = test system: thymus cancer cells (Ty-82 cells); assay: Cytotoxicity to thymus cancer cells (Ty-82 cells), WST-1; conditions: Homo sapiens, TY82, 72 h
[4] = test system: acute myelogenous leukemia cells (MV-4-11 cells); assay: Cytotoxicity to acute myelogenous leukemia cells (MV-4-11 cells), CCK-8; conditions: Homo sapiens, MV4-11, 72 h
[5] = GST-BRD4 (BD1+BD2) / biotinylated acetyl-histone H4 (Lys5,8,12,16) peptide, read-out: IC50, BRD4 binding inhibition
[6] = GST-BRD4 (BD1+BD2) vs biotinylated acetyl-histone H4 peptide, AlphaScreen, read-out: BRD4 IC50
[7] = read-out: Ty-82 Cytotoxicity IC50
[8] = read-out: IC50, cytotoxicity against acute myelogenous leukemia cells
[9] = read-out: MV-4-11 Cytotoxicity IC50

Row | SMILES | IC50 [1, 5] [nM] | IC50 [1, 6] [nM] | IC50 [2] [nM] | IC50 [3, 7] [nM] | IC50 [4, 8] [nM] | IC50 [4, 9] [nM] | IC50 ([1]; IC50, BRD4 binding inhibition, GST-BRD4 (BD1+BD2) / biotinylated acetyl-histone H4 (Lys5,8,12,16) peptide) [nM] | IC50 ([3]; read-out: IC50, cytotoxicity against thymus cancer cells) [nM]
1 | COc1ccc2nc(NCCCCNC(=O)CC(C)(C)C)c3nnc(C)n3c2c1 [Example 124, [4-(8-methoxy-1-methyl-[1,2,4]triazolo[4,3-a]quinoxaline-4-ylamino)-butyl]-3,3-dimethyl-butyramide] | ≤ 50 | 29 | 700 |  |  |  |  | 
2 | Cc1nnc2c(NCCCCNC(=O)[C@@H](O)C(C)C)nc3cc(N4CCSCC4)ccc3n12 [Example 525, N-[4-(7-thiomorphonyl-4-yl-1-methyl-[1,2,4]triazolo[4,3-a]quinoxaline-4-ylamino)-butyl]-2-(S)-hydroxy-3-methyl-butyramide] | ≤ 50 | 11 | 200 |  |  |  |  | 
3 | CCc1nnc2c(NCCCCNC(=O)CC(C)C)nc3cc(OC)ccc3n12 [Example 622, [4-(7-methoxy-1-ethyl-[1,2,4]triazolo[4,3-a]quinoxaline-4-ylamino)-butyl]-3-methyl-butyramide] | ≤ 50 | 20 | 290 |  |  |  |  | 
4 | COCCOc1cc2nc(NCCCCNC(=O)CC(C)C)c3nnc(C)n3c2cc1OCCOC [Example 166, N-{4-[7,8-bis-(2-methoxy-ethoxy)-1-methyl-[1,2,4]triazolo[4,3-a]quinoxaline-4-ylamino]-butyl}-3-methyl-butyramide] | ≤ 50 | 20 |  | 580 | ≤ 200 | 70 |  | 
5 | Cc1nnc2c(NCCCCNC(=O)Oc3ccccc3)nc3cc4c(cc3n12)OCCO4 [Example 191, [4-(1-methyl-8,9-dihydro-7,10-dioxa-2,3,5,11b-tetraaza-cyclopenta[a]anthracene-4-ylamino)-butyl]-carbamic acid phenylester] |  | 10 |  | 310 | ≤ 200 | 90 | ≤ 10 | ≤ 500
